For three molecules, IC50 results are on record in ChEMBL document CHEMBL3414527, “Engineering potent and selective analogues of GpTx-1, a tarantula venom peptide antagonist of the Na(V)1.7 sodium channel” (J Med Chem, 2015).

In experiment [1] the target is Sodium channel protein type 5 subunit alpha (Homo sapiens, UniProt Q14524). The experiment is described as follows: Inhibition of human NaV1.5 at -140 mV holding potential by whole-cell patch clamp assay.
In experiment [2] the target is Sodium channel protein type 4 subunit alpha (Homo sapiens, UniProt P35499). Nature of the experiment: Inhibition of human NaV1.4 at -140 mV holding potential by whole-cell patch clamp assay.
For experiment [3], the target named is Sodium channel protein type 9 subunit alpha (Homo sapiens, UniProt Q15858). Nature of the experiment: Inhibition of human NaV1.7 at -140 mV holding potential by whole-cell patch clamp assay.
Sequence of Sodium channel protein type 9 subunit alpha (Q15858 whole entry): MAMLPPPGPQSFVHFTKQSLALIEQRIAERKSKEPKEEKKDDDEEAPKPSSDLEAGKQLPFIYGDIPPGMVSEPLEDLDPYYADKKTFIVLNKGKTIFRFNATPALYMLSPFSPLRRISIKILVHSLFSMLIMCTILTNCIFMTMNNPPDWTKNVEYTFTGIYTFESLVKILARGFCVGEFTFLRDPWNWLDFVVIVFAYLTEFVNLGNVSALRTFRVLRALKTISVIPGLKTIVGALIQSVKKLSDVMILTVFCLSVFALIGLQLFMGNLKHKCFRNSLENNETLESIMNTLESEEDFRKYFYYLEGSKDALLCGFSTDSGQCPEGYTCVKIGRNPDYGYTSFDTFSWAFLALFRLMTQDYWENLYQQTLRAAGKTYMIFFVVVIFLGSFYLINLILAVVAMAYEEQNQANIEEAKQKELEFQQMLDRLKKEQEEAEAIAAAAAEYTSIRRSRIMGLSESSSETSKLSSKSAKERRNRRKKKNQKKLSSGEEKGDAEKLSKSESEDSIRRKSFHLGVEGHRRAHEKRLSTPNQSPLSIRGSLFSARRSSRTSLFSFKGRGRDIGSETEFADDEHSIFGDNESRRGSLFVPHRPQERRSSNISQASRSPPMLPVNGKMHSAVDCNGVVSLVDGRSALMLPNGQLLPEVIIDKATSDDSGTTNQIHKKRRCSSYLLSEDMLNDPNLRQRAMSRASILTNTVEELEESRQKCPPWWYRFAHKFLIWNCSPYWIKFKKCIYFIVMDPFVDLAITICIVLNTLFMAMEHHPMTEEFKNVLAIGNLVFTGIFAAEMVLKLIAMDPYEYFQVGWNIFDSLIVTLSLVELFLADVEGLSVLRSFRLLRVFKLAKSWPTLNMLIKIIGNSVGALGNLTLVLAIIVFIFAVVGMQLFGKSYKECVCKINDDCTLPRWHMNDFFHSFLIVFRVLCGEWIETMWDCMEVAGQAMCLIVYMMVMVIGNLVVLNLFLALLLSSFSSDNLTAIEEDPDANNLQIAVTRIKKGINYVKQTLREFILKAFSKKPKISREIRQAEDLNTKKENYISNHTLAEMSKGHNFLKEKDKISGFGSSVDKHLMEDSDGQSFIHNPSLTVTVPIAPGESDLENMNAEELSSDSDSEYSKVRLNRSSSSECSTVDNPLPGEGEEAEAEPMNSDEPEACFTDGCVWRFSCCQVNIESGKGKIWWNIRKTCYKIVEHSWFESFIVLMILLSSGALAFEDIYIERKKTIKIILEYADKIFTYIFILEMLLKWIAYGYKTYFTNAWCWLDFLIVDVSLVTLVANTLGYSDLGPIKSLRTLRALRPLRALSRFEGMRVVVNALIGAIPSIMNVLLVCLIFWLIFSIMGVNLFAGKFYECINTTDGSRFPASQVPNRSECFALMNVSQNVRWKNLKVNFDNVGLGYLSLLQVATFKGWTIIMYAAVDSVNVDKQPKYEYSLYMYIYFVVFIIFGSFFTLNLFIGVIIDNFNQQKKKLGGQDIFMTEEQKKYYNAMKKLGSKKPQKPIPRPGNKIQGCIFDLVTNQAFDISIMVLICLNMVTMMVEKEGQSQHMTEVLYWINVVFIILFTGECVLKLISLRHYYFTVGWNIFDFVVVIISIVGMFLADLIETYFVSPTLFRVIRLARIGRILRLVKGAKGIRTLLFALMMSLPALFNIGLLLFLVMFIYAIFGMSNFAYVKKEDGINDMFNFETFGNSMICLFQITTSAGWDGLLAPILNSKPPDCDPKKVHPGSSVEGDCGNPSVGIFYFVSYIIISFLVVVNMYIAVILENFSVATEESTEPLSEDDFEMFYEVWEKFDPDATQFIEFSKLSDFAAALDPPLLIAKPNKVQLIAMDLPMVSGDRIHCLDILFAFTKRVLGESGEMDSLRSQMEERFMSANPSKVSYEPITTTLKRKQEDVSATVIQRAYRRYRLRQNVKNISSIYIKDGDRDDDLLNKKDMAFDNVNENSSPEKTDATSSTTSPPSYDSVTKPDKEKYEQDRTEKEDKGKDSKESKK

SMILES strings stand for the structures. Bridge positions count the residues as written; N and C are the ends. Peptide text beside a SMILES is read from it.

Sequence of Sodium channel protein type 5 subunit alpha (Q14524 whole entry): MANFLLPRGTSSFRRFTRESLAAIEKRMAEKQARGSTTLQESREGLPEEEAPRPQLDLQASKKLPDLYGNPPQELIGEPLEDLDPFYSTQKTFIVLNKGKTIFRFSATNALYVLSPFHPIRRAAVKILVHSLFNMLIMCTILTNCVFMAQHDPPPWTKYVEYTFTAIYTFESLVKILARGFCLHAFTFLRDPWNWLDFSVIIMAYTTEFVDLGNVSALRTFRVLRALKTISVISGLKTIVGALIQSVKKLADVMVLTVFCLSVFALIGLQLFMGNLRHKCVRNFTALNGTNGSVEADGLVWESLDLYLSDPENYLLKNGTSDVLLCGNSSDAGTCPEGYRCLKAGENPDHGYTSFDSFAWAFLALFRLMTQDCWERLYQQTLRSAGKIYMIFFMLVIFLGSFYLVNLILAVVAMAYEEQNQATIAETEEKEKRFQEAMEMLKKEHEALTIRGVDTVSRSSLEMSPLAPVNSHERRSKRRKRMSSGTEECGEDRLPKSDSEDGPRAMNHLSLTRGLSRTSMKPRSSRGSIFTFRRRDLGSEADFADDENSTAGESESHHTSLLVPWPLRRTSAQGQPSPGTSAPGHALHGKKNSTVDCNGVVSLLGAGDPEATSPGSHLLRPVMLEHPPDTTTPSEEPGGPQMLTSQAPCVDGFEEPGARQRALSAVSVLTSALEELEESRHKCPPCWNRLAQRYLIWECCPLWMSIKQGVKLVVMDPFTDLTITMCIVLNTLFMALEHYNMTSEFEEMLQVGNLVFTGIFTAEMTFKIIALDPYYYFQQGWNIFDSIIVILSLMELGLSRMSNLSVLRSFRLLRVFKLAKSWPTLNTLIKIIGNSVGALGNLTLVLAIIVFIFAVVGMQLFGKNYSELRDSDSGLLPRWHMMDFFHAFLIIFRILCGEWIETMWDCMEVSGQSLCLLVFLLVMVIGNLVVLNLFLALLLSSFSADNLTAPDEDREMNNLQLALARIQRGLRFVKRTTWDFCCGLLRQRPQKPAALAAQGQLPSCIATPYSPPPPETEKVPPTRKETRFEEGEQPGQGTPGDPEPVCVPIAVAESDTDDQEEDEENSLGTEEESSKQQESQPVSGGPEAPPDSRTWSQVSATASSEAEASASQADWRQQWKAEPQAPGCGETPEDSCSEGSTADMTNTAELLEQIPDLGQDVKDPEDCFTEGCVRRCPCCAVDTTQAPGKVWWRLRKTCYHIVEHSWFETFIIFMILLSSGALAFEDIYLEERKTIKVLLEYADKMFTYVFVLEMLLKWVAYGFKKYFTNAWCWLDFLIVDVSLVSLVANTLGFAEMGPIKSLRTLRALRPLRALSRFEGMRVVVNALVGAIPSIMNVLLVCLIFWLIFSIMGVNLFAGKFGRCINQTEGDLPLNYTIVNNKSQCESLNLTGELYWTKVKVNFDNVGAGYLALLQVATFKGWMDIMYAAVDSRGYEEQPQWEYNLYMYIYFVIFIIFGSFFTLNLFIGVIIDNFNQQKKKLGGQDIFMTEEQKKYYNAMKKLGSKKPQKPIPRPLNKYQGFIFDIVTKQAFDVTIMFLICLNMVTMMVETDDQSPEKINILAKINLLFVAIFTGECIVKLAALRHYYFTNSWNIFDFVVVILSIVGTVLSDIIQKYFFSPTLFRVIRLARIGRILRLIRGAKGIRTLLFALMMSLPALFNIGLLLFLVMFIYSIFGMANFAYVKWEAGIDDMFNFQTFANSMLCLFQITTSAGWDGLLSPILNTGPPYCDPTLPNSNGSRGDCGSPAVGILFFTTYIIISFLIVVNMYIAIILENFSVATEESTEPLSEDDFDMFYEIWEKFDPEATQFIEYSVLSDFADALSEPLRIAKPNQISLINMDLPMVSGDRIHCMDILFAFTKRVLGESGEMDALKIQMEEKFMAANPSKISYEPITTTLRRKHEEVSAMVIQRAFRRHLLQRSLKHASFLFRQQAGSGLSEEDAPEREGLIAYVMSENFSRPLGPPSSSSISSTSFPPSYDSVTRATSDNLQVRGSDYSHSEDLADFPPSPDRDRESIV

`CSCC[C@@H]1NC(=O)CNC(=O)[C@H](CCC(=O)O)NC(=O)[C@@H]2CSSC[C@H](NC(=O)[C@@H](N)Cc3ccc(O)cc3)C(=O)N[C@@H](CCC(N)=O)C(=O)N[C@@H](CCCCN)C(=O)N[C@@H](Cc3c[nH]c4ccccc34)C(=O)N[C@@H](CCSC)C(=O)N[C@@H](Cc3c[nH]c4ccccc34)C(=O)N[C@@H]([C@@H](C)O)C(=O)N[C@H]3CSSC[C@H](NC(=O)[C@H](C(C)C)NC1=O)C(=O)N[C@@H](CCCNC(=N)N)C(=O)N[C@@H](CC(C)C)C(=O)N[C@@H](Cc1c[nH]c4ccccc14)C(=O)N[C@H](C(=O)N[C@@H](CCCCN)C(=O)N[C@@H](CCCCN)C(=O)N[C@@H](CCCCN)C(=O)N[C@@H](CC(C)C)C(=O)N[C@@H](Cc1c[nH]c4ccccc14)C(=O)O)CSSC[C@H](NC(=O)[C@H](CCCCN)NC(=O)[C@H](CCCNC(=N)N)NC(=O)[C@H](CCC(=O)O)NC(=O)[C@H](CO)NC(=O)[C@H](CC(=O)O)NC3=O)C(=O)N2`: the figures for the IC50 in experiment [1] and in experiment [2] were 90 nM and 30 nM, respectively.
In the case of `CC[C@H](C)[C@@H]1NC(=O)[C@@H]2CSSC[C@@H]3NC(=O)[C@H](C(C)C)NC(=O)[C@H](CC(C)C)NC(=O)[C@H](CC(N)=O)NC(=O)[C@@H]4CCCN4C(=O)[C@H](CCCNC(=N)N)NC(=O)[C@H](CSSC[C@H](NC(=O)[C@@H](N)CC(=O)O)C(=O)N[C@@H](CC(C)C)C(=O)NCC(=O)N[C@@H](Cc4ccccc4)C(=O)N[C@@H](CCSC)C(=O)N[C@@H](CCCNC(=N)N)C(=O)N[C@@H](CCCCN)C(=O)N2)NC(=O)[C@H](CSSC[C@@H](C(=O)N[C@@H](CCCCN)C(=O)N[C@@H](Cc2ccc(O)cc2)C(=O)N[C@H](C(=O)N[C@@H](Cc2ccccc2)C(N)=O)C(C)C)NC(=O)[C@H](Cc2c[nH]c4ccccc24)NC(=O)[C@H](CCCCN)NC(=O)[C@H](Cc2cnc[nH]2)NC(=O)[C@H](CC(C)C)NC(=O)[C@H](CCCNC(=N)N)NC(=O)[C@H](CO)NC3=O)NC(=O)[C@H](CCCCN)NC(=O)[C@H](CC(=O)O)NC(=O)[C@H](CC(N)=O)NC(=O)[C@H](CC(=O)O)NC(=O)[C@@H]2CCCN2C1=O` (H-DCLGFMRKCIPDNDKCCRPNLVCSRLHKWCKYVF-NH2; disulfide 2-17, 9-23, 16-30), the IC50 was determined as 4600 nM in experiment [1] and 4 nM in experiment [3].
As to `CC[C@H](C)[C@@H]1NC(=O)[C@@H]2CSSC[C@@H]3NC(=O)[C@H](C(C)C)NC(=O)[C@H](CC(C)C)NC(=O)[C@H](CC(N)=O)NC(=O)[C@@H]4CCCN4C(=O)[C@H](CCCNC(=N)N)NC(=O)[C@H](CSSC[C@H](NC(=O)[C@@H](N)CC(=O)O)C(=O)N[C@@H](CC(C)C)C(=O)NCC(=O)N[C@@H](Cc4ccccc4)C(=O)N[C@@H](Cc4ccccc4)C(=O)N[C@@H](CCCNC(=N)N)C(=O)N[C@@H](CCCCN)C(=O)N2)NC(=O)[C@H](CSSC[C@@H](C(=O)N[C@@H](CCCCN)C(=O)N[C@@H](Cc2ccc(O)cc2)C(=O)N[C@H](C(=O)N[C@@H](Cc2ccccc2)C(N)=O)C(C)C)NC(=O)[C@H](Cc2c[nH]c4ccccc24)NC(=O)[C@H](CCCCN)NC(=O)[C@H](Cc2cnc[nH]2)NC(=O)[C@H]([C@@H](C)O)NC(=O)[C@H](CCCNC(=N)N)NC(=O)[C@H](CO)NC3=O)NC(=O)[C@H](CCCCN)NC(=O)[C@H](CC(=O)O)NC(=O)[C@H](CC(N)=O)NC(=O)[C@H](CC(=O)O)NC(=O)[C@@H]2CCCN2C1=O` (H-DCLGFFRKCIPDNDKCCRPNLVCSRTHKWCKYVF-NH2; disulfide 2-17, 9-23, 16-30), the results for the IC50 in experiment [1] and in experiment [3] were 3000 nM and 19 nM, respectively.
